pIC50: −log10 of the molar value. Converted amounts (≈) assume the structure as drawn.

One experiment addresses MtbSecA (Mycobacterium tuberculosis, UniProt P9WGP5). Put plainly: cell-based.
Experiment [1] deals with secretion of α-hemolysin, enterotoxin B and TSST-1 by S. aureus Mu50. Format: cell-based.
A further experiment concerns the target EcSecA (Escherichia coli, UniProt P10408). Put plainly: biochemical. Particulars: IC50, Protein Translocation, Table 1.
The next experiment has as its system S. aureus N315. Put plainly: Bacteriostatic effect, S. aureus N315. Particulars: Staphylococcus aureus, N315, read-out: Bacteriostatic effect, MIC, S. aureus N315.
For the next experiment, the target named is T1, SaSecA2 (Staphylococcus aureus, UniProt Q2FUW6).
T1 sequence (Q2FUW6 1-796): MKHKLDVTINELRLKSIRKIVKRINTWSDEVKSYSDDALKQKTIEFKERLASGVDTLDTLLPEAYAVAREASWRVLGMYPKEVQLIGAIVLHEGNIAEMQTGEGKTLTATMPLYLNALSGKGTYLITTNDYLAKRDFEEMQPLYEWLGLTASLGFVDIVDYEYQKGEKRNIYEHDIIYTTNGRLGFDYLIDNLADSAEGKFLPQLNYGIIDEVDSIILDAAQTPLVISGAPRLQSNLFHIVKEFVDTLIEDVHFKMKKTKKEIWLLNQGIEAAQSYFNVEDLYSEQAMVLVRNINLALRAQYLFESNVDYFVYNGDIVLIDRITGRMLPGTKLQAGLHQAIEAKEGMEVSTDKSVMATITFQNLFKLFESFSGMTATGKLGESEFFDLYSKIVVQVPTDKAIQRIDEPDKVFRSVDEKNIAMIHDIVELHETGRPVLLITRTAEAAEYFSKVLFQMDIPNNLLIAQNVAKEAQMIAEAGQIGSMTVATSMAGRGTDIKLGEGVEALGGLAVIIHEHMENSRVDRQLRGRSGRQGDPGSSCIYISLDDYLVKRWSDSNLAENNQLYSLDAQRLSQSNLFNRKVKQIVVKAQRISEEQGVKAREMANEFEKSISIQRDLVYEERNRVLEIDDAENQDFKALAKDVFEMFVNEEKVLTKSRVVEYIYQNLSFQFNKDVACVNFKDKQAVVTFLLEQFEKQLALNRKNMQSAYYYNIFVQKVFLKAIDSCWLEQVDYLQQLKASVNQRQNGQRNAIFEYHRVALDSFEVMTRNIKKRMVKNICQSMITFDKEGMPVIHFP
Put plainly: ATPase activity assay (malachite green), SaSecA2. Particulars: IC50, ATPase activity, SaSecA2, Table 7.

Chain of MtbSecA (P9WGP5 whole entry): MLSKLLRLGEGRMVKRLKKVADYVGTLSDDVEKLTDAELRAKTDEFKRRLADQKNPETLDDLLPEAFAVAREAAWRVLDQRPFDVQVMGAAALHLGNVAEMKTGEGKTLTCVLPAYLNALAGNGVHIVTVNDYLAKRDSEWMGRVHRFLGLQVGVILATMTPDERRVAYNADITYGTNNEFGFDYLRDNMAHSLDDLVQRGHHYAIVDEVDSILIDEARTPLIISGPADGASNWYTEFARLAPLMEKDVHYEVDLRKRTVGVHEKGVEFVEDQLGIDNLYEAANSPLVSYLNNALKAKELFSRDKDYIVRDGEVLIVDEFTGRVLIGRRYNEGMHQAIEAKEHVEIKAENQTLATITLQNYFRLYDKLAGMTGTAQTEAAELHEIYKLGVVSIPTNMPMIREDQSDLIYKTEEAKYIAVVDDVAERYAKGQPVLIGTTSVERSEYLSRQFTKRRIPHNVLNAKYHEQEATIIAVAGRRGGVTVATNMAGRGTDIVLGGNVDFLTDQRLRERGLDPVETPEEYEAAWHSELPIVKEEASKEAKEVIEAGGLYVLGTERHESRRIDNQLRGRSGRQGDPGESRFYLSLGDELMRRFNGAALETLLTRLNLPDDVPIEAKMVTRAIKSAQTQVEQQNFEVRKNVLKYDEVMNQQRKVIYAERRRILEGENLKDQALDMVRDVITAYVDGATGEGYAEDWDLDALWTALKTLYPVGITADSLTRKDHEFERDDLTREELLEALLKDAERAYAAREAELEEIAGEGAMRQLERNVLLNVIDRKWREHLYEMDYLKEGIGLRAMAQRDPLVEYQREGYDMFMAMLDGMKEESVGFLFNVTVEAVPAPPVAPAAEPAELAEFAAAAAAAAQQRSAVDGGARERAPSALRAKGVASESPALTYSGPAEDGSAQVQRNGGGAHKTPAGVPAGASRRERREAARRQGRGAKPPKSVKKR
Chain of EcSecA (P0AG99 whole entry): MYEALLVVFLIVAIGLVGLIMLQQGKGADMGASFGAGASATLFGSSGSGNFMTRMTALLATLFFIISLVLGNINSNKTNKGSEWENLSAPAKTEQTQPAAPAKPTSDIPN
Chain of EcSecA (P10408 whole entry): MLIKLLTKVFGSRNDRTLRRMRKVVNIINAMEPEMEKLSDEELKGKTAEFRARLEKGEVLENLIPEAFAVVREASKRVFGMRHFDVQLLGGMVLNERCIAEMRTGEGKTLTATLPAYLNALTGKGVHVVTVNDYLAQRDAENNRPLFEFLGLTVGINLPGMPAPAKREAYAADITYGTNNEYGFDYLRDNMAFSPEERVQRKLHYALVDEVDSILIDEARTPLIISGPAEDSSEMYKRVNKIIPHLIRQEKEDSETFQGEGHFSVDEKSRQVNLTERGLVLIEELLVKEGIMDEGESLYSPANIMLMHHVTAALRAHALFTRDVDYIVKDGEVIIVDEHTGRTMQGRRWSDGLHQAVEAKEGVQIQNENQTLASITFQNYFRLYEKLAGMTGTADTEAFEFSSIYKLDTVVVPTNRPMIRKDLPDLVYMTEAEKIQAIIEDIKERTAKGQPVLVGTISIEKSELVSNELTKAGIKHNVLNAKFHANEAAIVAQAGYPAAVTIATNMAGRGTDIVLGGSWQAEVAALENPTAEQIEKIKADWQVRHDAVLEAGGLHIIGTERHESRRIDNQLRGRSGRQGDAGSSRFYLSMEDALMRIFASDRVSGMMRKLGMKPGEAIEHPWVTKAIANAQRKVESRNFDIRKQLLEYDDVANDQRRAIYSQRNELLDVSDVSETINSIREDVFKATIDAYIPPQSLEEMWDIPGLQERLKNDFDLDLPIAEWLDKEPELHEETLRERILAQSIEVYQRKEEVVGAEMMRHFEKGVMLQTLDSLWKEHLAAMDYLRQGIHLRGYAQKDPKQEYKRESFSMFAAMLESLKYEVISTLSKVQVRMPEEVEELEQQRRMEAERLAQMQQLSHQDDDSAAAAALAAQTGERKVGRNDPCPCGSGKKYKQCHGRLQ
Chain of EcSecA (P0AGA2 whole entry, further chain): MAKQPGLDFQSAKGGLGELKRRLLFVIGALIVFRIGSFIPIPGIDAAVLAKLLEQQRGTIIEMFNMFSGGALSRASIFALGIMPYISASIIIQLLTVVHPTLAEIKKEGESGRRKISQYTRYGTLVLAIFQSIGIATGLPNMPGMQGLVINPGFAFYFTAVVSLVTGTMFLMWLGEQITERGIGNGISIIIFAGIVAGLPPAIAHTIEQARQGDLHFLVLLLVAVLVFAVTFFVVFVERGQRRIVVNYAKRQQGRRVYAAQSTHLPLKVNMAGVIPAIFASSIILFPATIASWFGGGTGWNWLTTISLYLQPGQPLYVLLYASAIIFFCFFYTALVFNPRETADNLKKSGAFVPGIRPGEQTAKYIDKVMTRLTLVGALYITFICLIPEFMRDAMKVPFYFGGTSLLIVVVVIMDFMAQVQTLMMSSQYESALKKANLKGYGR
Chain of EcSecA (P0AG96 whole entry, further chain): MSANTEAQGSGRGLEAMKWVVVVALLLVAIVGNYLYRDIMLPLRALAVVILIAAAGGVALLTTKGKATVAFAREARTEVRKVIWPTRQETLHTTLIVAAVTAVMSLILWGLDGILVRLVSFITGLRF

For orientation: pIC50 means −log10 of the IC50, conventionally taken in molar units. High values mean a small IC50, low ones a large IC50. The term MIC denotes the lowest concentration found to suppress growth. Regarding `CCCCCCC1c2ccc(O)cc2Oc2cc(O)ccc21` [SCA-50], the pIC50 is 5.52 on MtbSecA, 4.42 against EcSecA and 4.76 against SaSecA2. The “Amount of α-hemolysin, enterotoxin B, and TSST-1 in the supernatant” value in experiment [1] is on record as “significantly decreased”. For the same molecule, in the experiment on S. aureus N315, the MIC amounted to 3.7 µg/mL (≈ 12.4 µM).

Source of the values: US9957247B2, “SecA inhibitors and methods of making and using thereof” (Georgia State University Research Foundation, Inc., priority 2012, dated 2018).
